Test results published in US6768007B2, “Substituted 3′,4′-di-O-camphanoyl-(+)-cis-khellactone analogs, compositions thereof, and methods for using thereof” (Panacos Pharmaceuticals, Inc., priority 2001, dated 2004).

What was measured:
[1] = parameters: species or system rats; details: rat, in vivo
Description: Studies of the disposition of compound 11 ((3′R,4′R)-3′,4′-di-O-(S)-(−)-camphanoyl-3-hydroxymethyl-4-methyl-(+)-cis-khellactone) and 4-methyl-DCK ((3′R,4′R)-3′,4′-di-O-(S)-(−)-camphanoyl-4-methyl-(+)-cis-khellactone) were conducted in rats. 4-Methyl-DCK can be prepared, for example, as described in U.S. Pat. No. 5,847,165. The rats ordered from Charles River with jugular catheters in place were allowed to acclimate for one to two days prior to use. The venous catheter was kept patent by flushing daily with heparin solution. […]
Reversed phase HPLC was conducted with an ODS, 5 μM particle size, 150×10 mm Axxiom column (Thompson Instruments, Chantilly, Va.) using 55% acetonitrile and water as the mobile phase with 25 mM acetic acid buffer at 1.5 mL/min. Detection was carried out at 320 nm (λmax) for UV detection and at an excitation wavelength of 320 nm. The equipment for HPLC was an HP 1100 system with UV and quantitative analysis was performed using the HP Chemstation. […]
Weighed amounts (approximately 7-8 mg) of 4-methyl-DCK were suspended in 1 mL of 10% Tween 80/water, then administered to two rats (250-300 g) by oral gavage using a feeding needle to provide an oral dose of 25 mg/kg. Blood samples (0.3 mL) were collected at 0, 0.25, 0.50, 0.75, 1.0, 1.5, 2, 4, 8, and 23 hours following the oral dosing. Approximately 0.01 mL of heparin was added to each sample. The samples were then centrifuged to collect 0.10 mL of plasma. The plasma samples were frozen at −20° C. prior to analysis. The samples were thawed and analyzed by reversed phase HPLC within two weeks of collection.
Reversed phase HPLC was conducted with an ODS, 5 μM particle size, 150×10 mm Axxiom column (Thompson Instruments, Chantilly, Va.) using 60% acetonitrile/0.1% TFA in water as the mobile phase. Detection was carried out at 320 nm (λmax) for UV detection. The equipment for HPLC was an HP 1050 quaternary HPLC pump, an HP 1050 UV detector at 320 nm and range 0.2, an HP 3390 integrator, and a BioRad Model AS-100 autosampler.
Standard curves were prepared by addition of appropriate diluted stock solutions of 4-methyl-DCK to 0.10 mL plasma (pooled human plasma) to provide concentration of zero, and 0.05 to 20 μg/mL in a 13×100 mm culture tube. Internal standard solution (0.025 mL of 0.01 mg/mL DCK) was then added to each tube. The spiked samples were briefly vortexes, then allowed to equilibrate for at least 10 minutes prior to further workup. […]
The HPLC assay was partially validated to have a range of 0.125 to 20 μg/mL in plasma, with a detection limit of 50 ng/mL. Recovery from plasma was determined by spiking 4-methyl-DCK into plasma the same way as was done in the preparation of the standard curve, and preparing samples as described above, but adding DCK as an external standard just prior to injection. […]

[2] = tested on: HIV-1 replication in H9 lymphocyte cells; details: background art, cited from earlier work; for EC50: read-out: EC50 against HIV-1 replication
HIV-1 (IIIB isolate) = assay: Anti-HIV activity in H9 lymphocytes (p24 antigen ELISA); assay type: cell-based; details: H-9 lymphocytes; for Anti-HIV Activity EC50: HIV-1 IIIB, p24 ELISA, day 5, average of at least two experiments; for Therapeutic Index (TI = IC50/EC50): ratio of IC50 to EC50
Description: (§1) The biological evaluation of HIV-1 inhibition was carried out according to established protocols, (Kashiwada, Y., et al., J. Med. Chem. 39:1016-1017 (1996); Hashimoto, F., et al., Bioorg. & Med. Chem. 5:2133-2143 (1997)). The T cell line, H9, was maintained in continuous culture log-phase growth in complete medium (RPMI 1640 with 10% fetal calf serum supplemented with L-glutamine at 5% CO2 and 37° C.). Test samples were first dissolved in dimethyl sulfoxide at a concentration of 10 mg/ml to generate master stocks with dilutions made into tissue culture media to generate working stocks. The following drug concentrations were used routinely for screening: 50, 5, and 0.5 μg/mL. For agents found to be active, additional dilutions were prepared for subsequent testing so that an accurate EC50 value (defined below) could be determined. As the test samples were being prepared, an aliquot of the H9 cell line was infected with HIV-1 (IIIB isolate) while a second aliquot was mock-infected with complete medium. […] An amount of virus equal to approximately 6.25×10^4 TCID50 was added to the first aliquot of 3.5×10^6H9 cells. The second aliquot received tissue culture medium only, and these mock-infected cells were used for toxicity determinations (IC50 defined below). After a 4 h incubation at 37° C. and 5% CO2, both cell populations were washed three times with fresh medium and then added to the appropriate wells of a 96-well plate containing various concentrations of the test drug or tissue culture medium (positive infected control/negative drug control). In addition, AZT was assayed during each experiment as a positive drug control. The plates were incubated at 37° C. and 5% CO2 for 5 days. Cell-free culture supernatants were collected on Day 5 for use in a p24 antigen-capture ELISA assay to determine virus replication. p24 is the core protein of HIV and therefore is an indirect measure of the amount of virus present in the culture supernatants. Toxicity was determined using a viable dye method (XTT) on mock-infected H9 cells that were treated with test sample, AZT or no drug. If a test sample suppressed viral replication and was toxic to less than 50% of the cells, its effects were reported in the following terms: IC50, the concentration of test sample which was toxic to 50% of the mock-infected H9 cells; EC50, the concentration of the test sample which was able to suppress HIV replication by 50%; and Therapeutic Index (TI), the ratio of IC50 to EC50.
(§2) Compounds of the present invention were assayed for anti-HIV activity according to the following assay procedures. The T cell line, H9, and the promonocytic cell line, U937, were maintained separately in continuous culture with complete medium (RPMI 1640 with 10% fetal calf serum) at 5% CO2 and 37° C. The cell lines were used in experiments only when in the logarithmic phase of growth, whereas uninfected peripheral blood mononuclear cells (PBMCs) were first stimulated with PHA (1 μg/mL) for three days. All cell targets were incubated with HIV-1 (IIIB isolate, 1×10^6 TCID50/mL) for one hour at 37° C. and 5% CO2. The cell lines and PBMCs were washed thoroughly to remove unadsorbed virions and resuspended at 4×10^5 cells/mL in complete medium or complete medium with 10% v/v interleukin 2 (IL-2), respectively. […] aliquots were placed into wells of 96-well tissue culture plates containing an equal volume of test compounds (diluted in the appropriate culture medium). The toxicity of each compound was assessed by determining the viability of compound-exposed uninfected cells after five days at 37° C. and 5% CO2. A p24 antigen ELISA assay was used to determine the level of virus released in the medium of the HIV-infected cultures. The p24 antigen assay used a HIV-1 anti-p24 specific monoclonal antibody as the capture antibody coated onto 96-well plates. […]

mock-infected H9 cells = assay: Cytotoxicity in mock-infected (uninfected) H9 cells; assay type: cell-based
Description: as §1, §2

| Anti-HIV Activity EC50 (HIV-1 (IIIB isolate)) | Structure (SMILES) | EC50 [2] | therapeutic index (TI) [2] | Therapeutic Index (TI = IC50/EC50) (HIV-1 (IIIB isolate)) | Cytotoxicity IC50 (mock-infected H9 cells) | also measured |
| --- | --- | --- | --- | --- | --- | --- |
|  | Cc1cc(=O)oc2c3c(ccc12)OC(C)(C)[C@H](OC(=O)[C@@]12CCC(C)(C(=O)O1)C2(C)C)[C@@H]3OC(=O)[C@@]12CCC(C)(C(=O)O1)C2(C)C (relative stereo) [Compound 4-methyl-DCK, (3′R,4′R)-3′,4′-di-O-(S)-(−)-camphanoyl-4-methyl-(+)-cis-khellactone, reference compound] |  |  |  |  | concentration in plasma after oral administration ([1]; po, 25 mg/kg): less than 50 ng/mL |
|  | CC(=O)O[C@@H]1[C@H](OC(=O)CC(C)C)c2c(ccc3ccc(=O)oc23)OC1(C)C [suksdorfin, (3′R,4′R)-3′-acetoxy-4′-isovaleryloxy-(+)-cis-khellactone] | 1300 nM | 140 |  |  |  |
|  | CC1(C)Oc2ccc3ccc(=O)oc3c2[C@@H](OC(=O)[C@@]23CCC(C)(C(=O)O2)C3(C)C)[C@H]1OC(=O)[C@@]12CCC(C)(C(=O)O1)C2(C)C (relative stereo) [DCK, 3′,4′-di-O-(S)-(−)-camphanoyl-(3′R,4′R)-(+)-cis-khellactone] | 0.256 nM | 136,719 |  |  |  |
| 0.0215 µg/mL | Cc1cc(=O)oc2c3c(c(C(Br)Br)cc12)OC(C)(C)[C@H](OC(=O)[C@@]12CCC(C)(C(=O)O1)C2(C)C)[C@@H]3OC(=O)[C@@]12CCC(C)(C(=O)O1)C2(C)C (relative stereo) [Compound 5, (3′R,4′R)-3′,4′-Di-O-(S)-(−)-camphanoyl-6-dibromomethyl-4-methyl-(+)-cis-khellactone] |  |  | 81.8 | 1.76 µg/mL |  |
| 0.0161 µg/mL | Cc1c(CO)c(=O)oc2c3c(ccc12)OC(C)(C)[C@H](OC(=O)[C@@]12CCC(C)(C(=O)O1)C2(C)C)[C@@H]3OC(=O)[C@@]12CCC(C)(C(=O)O1)C2(C)C (relative stereo) [Compound 11, (3′R,4′R)-3′,4′-Di-O-(S)-(−)-camphanoyl-3-hydroxymethyl-4-methyl-(+)-cis-khellactone] |  |  | 1,320 | 21.2 µg/mL | oral bioavailability (Foral) [1]: 15%; clearance ([1]; iv): 83 mL/min/kg; time at which Cmax occurs ([1]; po): 120 to 240 min |
